Consider ten molecules from ChEMBL document CHEMBL1201862, “PubChem BioAssay data set” (2004).

SMILES strings stand for the structures.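 1) Cells in 96-well plates. 2) Compound, 48 h, 5 concentrations. 3) Linear interpolation between surrounding doses. 4) Unreached endpoint = highest concentration. GI50 is the concentration that inhibits growth by half.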 The source made the active and inactive calls. No stated cut-off is given here; in the data, active = GI50 up to about 1.1 µM and inactive = higher.

Test systems include UO-31; SNB-19; HCT-15; OVCAR-5; OVCAR-8; HCC 2998; MDA-MB-435; UACC-62; COLO 205; CCRF-CEM; K562; HOP-62; PC-3; BT-549; HCT-116; U-251; NCI/ADR-RES; Malme-3M; T47D; NCI-H23.
Common to all, as to assay: inhibition of tumour cell growth, NCI panel, 48 h

With `Nc1ncnc2c1ccn2C/C=C/CO`, the GI50 is > 100 µM (inactive) in the test with UO-31; > 100 µM (inactive) in the test on SNB-19; greater than 100 µM in the test with HCT-15; > 100 µM (inactive) with OVCAR-5; > 100 µM (inactive) with OVCAR-8; > 100 µM (inactive) in the test on HCC 2998. The GI50 in the test with MDA-MB-435, with UACC-62, with COLO 205, in the test on CCRF-CEM, with K562 and with HOP-62 was > 100 µM (inactive) throughout. Moreover, the GI50 in the test with PC-3, in the test with BT-549, in the test on HCT-116, with U-251, with NCI/ADR-RES and in the test on Malme-3M was > 100 µM (inactive) in each case. Further, the GI50 in the test on T47D and with NCI-H23 was > 100 µM (inactive) each time.

With `C=C1OC(c2ccccc2NC)=NC12CCCCC2`, the GI50 in the test on UO-31 was > 100 µM (inactive); in the test with SNB-19, > 100 µM (inactive); in the test on HCT-15, greater than 100 µM; in the test on OVCAR-5, > 100 µM (inactive); in the test with OVCAR-8 it was > 100 µM (inactive); in the test on HCC 2998, > 100 µM (inactive). In addition, the GI50 in the test on MDA-MB-435, in the test with UACC-62, in the test on COLO 205, with CCRF-CEM, with K562 and in the test on HOP-62 was > 100 µM (inactive) in each case. Besides, the GI50 in the test on PC-3, in the test with BT-549, in the test with HCT-116, in the test on U-251, in the test with NCI/ADR-RES and with Malme-3M was > 100 µM (inactive) in each case. Besides, the GI50 in the test on T47D and in the test with NCI-H23 was > 100 µM (inactive) in each case.

Turning to `N=C(N)N/N=C/c1c(-c2cc([N+](=O)[O-])c(Cl)cc2Cl)nc2n1CCS2`, the GI50 in the test on UO-31 was 18.2 µM (inactive); with SNB-19 it was 3.87 µM (inactive); in the test with HCT-15 it was 47 µM; in the test with OVCAR-5, 79.3 µM (inactive); in the test with OVCAR-8, 26.5 µM (inactive); with HCC 2998, 2.55 µM (inactive). Also, the GI50 in the test on MDA-MB-435 is 9.38 µM (inactive); with UACC-62 it was 25.5 µM (inactive); in the test with COLO 205, 2.66 µM (inactive); in the test with CCRF-CEM, 2.84 µM (inactive); in the test on K562 it was 2.88 µM (inactive); with HOP-62, 42.4 µM (inactive). Further, the GI50 in the test with PC-3 was 13.2 µM (inactive); with BT-549, 3.18 µM (inactive); in the test on HCT-116 it was 5.01 µM (inactive); in the test on U-251, 3.21 µM (inactive); in the test on NCI/ADR-RES, > 100 µM (inactive); in the test with Malme-3M it was 24.5 µM (inactive). For the same molecule, the results for the GI50 with T47D and in the test with NCI-H23 were 2.47 µM (inactive) and 5.33 µM (inactive), respectively.

In the case of `CCOC(=O)C#Cc1ccc(C#CC(=O)OCC)cc1`, the GI50 in the test on UO-31 is 3.43 µM (inactive); in the test on SNB-19 it was 5.02 µM (inactive); in the test with HCT-15, 1.81 µM; in the test with OVCAR-5, 11.8 µM (inactive); in the test with OVCAR-8 it was 3.49 µM (inactive); in the test with HCC 2998 it was 6.46 µM (inactive). For the same molecule, the GI50 in the test on MDA-MB-435 is 0.818 µM (active); in the test on UACC-62 it was 3.37 µM (inactive); with COLO 205, 6.21 µM (inactive); in the test on CCRF-CEM, 1.66 µM (inactive); in the test with K562, 2 µM (inactive); in the test on HOP-62 it was 3.81 µM (inactive). Further, the GI50 in the test on PC-3 was 6.85 µM (inactive); in the test on BT-549, 3.95 µM (inactive); with HCT-116, 1.7 µM (inactive); in the test with U-251, 2.51 µM (inactive); in the test with NCI/ADR-RES it was 6.43 µM (inactive); in the test on Malme-3M, 3.35 µM (inactive). The GI50 was > 21.2 µM (inactive) in the test with T47D and 3.69 µM (inactive) in the test with NCI-H23.

For the molecule `CC1=CC=C2c3ccccc3C=CN2C(=O)C1`, the GI50 in the test with UO-31 was 30.9 µM (inactive); in the test on SNB-19, 70.5 µM (inactive); in the test with HCT-15 it was 45.9 µM; in the test on OVCAR-5, > 100 µM (inactive); in the test on OVCAR-8, 56.5 µM (inactive); in the test on HCC 2998, 56.6 µM (inactive). Moreover, the GI50 in the test on MDA-MB-435 was 34.8 µM (inactive); in the test with UACC-62 it was 84.9 µM (inactive); with COLO 205, 42.5 µM (inactive); in the test with CCRF-CEM it was 38.8 µM (inactive); in the test with K562, 37.8 µM (inactive); in the test with HOP-62, > 100 µM (inactive). The GI50 is 50 µM (inactive) with PC-3; 18.9 µM (inactive) in the test with BT-549; 40.8 µM (inactive) in the test on HCT-116; 60.4 µM (inactive) in the test on U-251; 38.7 µM (inactive) in the test with NCI/ADR-RES; > 100 µM (inactive) in the test with Malme-3M. The figures for the GI50 with T47D and in the test on NCI-H23 were 32.4 µM (inactive) and 61.9 µM (inactive), respectively.

On to `O=[N+]([O-])c1cc2oc(CSc3ccccc3)nc2cc1Cl`, for which the GI50 in the test on UO-31 is 35.9 µM (inactive); in the test on SNB-19, 45.1 µM (inactive); with HCT-15 it was 19.2 µM; in the test on OVCAR-5, 31.3 µM (inactive); in the test with OVCAR-8, 33.5 µM (inactive); in the test with HCC 2998, 23.5 µM (inactive). Also, the GI50 with MDA-MB-435 is 32.4 µM (inactive); with UACC-62 it was 36.2 µM (inactive); in the test on COLO 205, 21.7 µM (inactive); in the test on CCRF-CEM, 37.5 µM (inactive); with K562, 36.2 µM (inactive); in the test on HOP-62, 41.7 µM (inactive). Further, the GI50 in the test on PC-3 was 48 µM (inactive); with BT-549, 23.4 µM (inactive); in the test on HCT-116, 29.4 µM (inactive); in the test with U-251 it was 23.6 µM (inactive); with NCI/ADR-RES, 12.9 µM (inactive); in the test on Malme-3M it was 50 µM (inactive). The GI50 was 24.9 µM (inactive) in the test on T47D and 26.7 µM (inactive) in the test on NCI-H23.

On to `CC(C)C(OC(=O)c1ccc(NCC2=CC(=O)C=CC2=O)cc1)C(C)C`, for which the GI50 in the test on UO-31 was 1.82 µM (inactive); in the test on SNB-19 it was 18.3 µM (inactive); in the test on HCT-15, 2.97 µM; in the test on OVCAR-5, 13.3 µM (inactive); with OVCAR-8, 3.03 µM (inactive); in the test with HCC 2998, 13.6 µM (inactive). Further, the GI50 in the test with MDA-MB-435 is 4.75 µM (inactive); with UACC-62 it was 6.44 µM (inactive); with COLO 205 it was 2.79 µM (inactive); with CCRF-CEM it was 0.474 µM (active); in the test on K562, 3.66 µM (inactive); in the test on HOP-62, 18.3 µM (inactive). Also, the GI50 is 8.09 µM (inactive) in the test with PC-3; 3.52 µM (inactive) in the test on BT-549; 11.7 µM (inactive) in the test with HCT-116; 3.32 µM (inactive) with U-251; 4.3 µM (inactive) in the test on NCI/ADR-RES; 8.89 µM (inactive) in the test on Malme-3M. Also, the GI50 in the test with T47D is 2.1 µM (inactive); with NCI-H23 it was 5.05 µM (inactive).

`CN(C(=O)Cc1cc(Cl)c(Cl)cc1NC(=O)CN)[C@H]1CCCC[C@@H]1N1CCCC1`: the GI50 is 33.8 µM (inactive) in the test with UO-31; 45.8 µM (inactive) with SNB-19; 37 µM with HCT-15; > 100 µM (inactive) in the test on OVCAR-5; 88.3 µM (inactive) with OVCAR-8; 16.6 µM (inactive) in the test on HCC 2998. Besides, the GI50 is 16.1 µM (inactive) with MDA-MB-435; 16 µM (inactive) in the test with UACC-62; 27.5 µM (inactive) in the test with CCRF-CEM; 24.7 µM (inactive) in the test on K562; > 100 µM (inactive) in the test with HOP-62; 37.1 µM (inactive) in the test on PC-3. Further, the GI50 in the test with BT-549 is 35.1 µM (inactive); in the test with HCT-116, 30 µM (inactive); with U-251, 17.8 µM (inactive); in the test on NCI/ADR-RES it was > 100 µM (inactive); with Malme-3M, 20.8 µM (inactive); in the test with T47D, 25.7 µM (inactive). Moreover, the GI50 in the test on NCI-H23 is > 100 µM (inactive).

On to `CC1=C(O)C(=O)C[C@]2(C)[C@H]3CC=C4[C@@H]5CC(C)(C)CC[C@@H]5C(=O)[C@H](O)[C@@]4(C)[C@]3(C)CC[C@@H]12`, for which the GI50 was > 50 µM (inactive) in the test on UO-31; > 50 µM (inactive) in the test on SNB-19; greater than 50 µM with HCT-15; > 50 µM (inactive) in the test with OVCAR-5; 22.6 µM (inactive) with OVCAR-8; 20.4 µM (inactive) in the test with HCC 2998. Moreover, the GI50 in the test on MDA-MB-435 is > 50 µM (inactive); in the test with UACC-62, > 50 µM (inactive); in the test with COLO 205 it was > 50 µM (inactive); in the test with CCRF-CEM it was > 50 µM (inactive); in the test on HOP-62 it was 30.7 µM (inactive); with PC-3 it was 16.7 µM (inactive). The GI50 is > 50 µM (inactive) in the test with BT-549; > 50 µM (inactive) with HCT-116; 27.5 µM (inactive) in the test on U-251; > 50 µM (inactive) with NCI/ADR-RES; > 50 µM (inactive) in the test on Malme-3M; > 50 µM (inactive) with T47D. Besides, the GI50 in the test on NCI-H23 was > 50 µM (inactive).

Regarding `Cc1cccc(/C=N/NC(=S)N2CCCCCC2)n1`, the GI50 was 0.103 µM (active) with UO-31; 0.543 µM (active) in the test with SNB-19; 0.049 µM in the test with HCT-15; 0.0142 µM (active) with OVCAR-8; 0.468 µM (active) with HCC 2998; 1.3 µM (inactive) in the test on MDA-MB-435. Also, the GI50 in the test with UACC-62 is 0.163 µM (active); in the test with COLO 205, < 0.0269 µM (active); in the test with CCRF-CEM, < 0.01 µM (active); in the test with K562, < 0.01 µM (active); in the test on HOP-62, 0.219 µM (active); with PC-3 it was < 0.0166 µM (active). Also, the GI50 with BT-549 was 0.512 µM (active); in the test on HCT-116 it was < 0.01 µM (active); in the test with U-251 it was < 0.0417 µM (active); with NCI/ADR-RES, < 0.01 µM (active); in the test with Malme-3M it was 0.313 µM (active); in the test with T47D, < 0.01 µM (active). The GI50 in the test with NCI-H23 is 0.299 µM (active).
